Source: US9676704B2, “Pesticidal compositions and processes related thereto” (Dow AgroSciences LLC, priority 2014, dated 2017)

Legend:
Beet Armyworm (BAW) = test: Bioassays on BAW, 128-well diet tray assay; format: in vivo; details: Spodoptera exigua; for mortality at 50 µg/cm2: 168 h, 50 μg/cm^2 on artificial diet, second instar larvae, five to seven days, 25° C., read-out: BAW % Control (or Mortality) rating; for mortality at 0.05 µg/cm2: 0.05 μg/cm^2; for mortality at 0.05 µg/cm2 / mortality at 0.5 µg/cm2 / mortality at 5 µg/cm2: read-out: BAW Percent control (or mortality); for mortality at 0.5 µg/cm2: 0.5 μg/cm^2; for mortality at 5 µg/cm2: 5 μg/cm^2
Protocol: Bioassays on BAW were conducted using a 128-well diet tray assay. one to five second instar BAW larvae were placed in each well (3 mL) of the diet tray that had been previously filled with 1 mL of artificial diet to which 50 μg/cm^2 of the test compound (dissolved in 50 μL of 90:10 acetone-water mixture) had been applied (to each of eight wells) and then allowed to dry. Trays were covered with a clear self-adhesive cover, and held at 25° C., 14:10 light-dark for five to seven days. Percent mortality was recorded for the larvae in each well; activity in the eight wells was then averaged. The results are indicated in the tables entitled “Table ABC: Assay Results (F)”, “Table ABCD: Assay Results (C)”, and “Table ABCDE: Assay Results (P)” (See Table Section).
(§1) Bioassays on BAW and CL were conducted according to the procedures outlined in Example A: Bioassays on Beet Armyworm (“BAW”) and Cabbage Looper (“CL”) using the following concentrations: 5, 0.5, and 0.05 μg/cm^2.

Cabbage Looper (CL) = test: Bioassays on CL, 128-well diet tray assay; format: in vivo; details: Trichoplusia ni; for mortality at 50 µg/cm2: 168 h, 50 μg/cm^2 on artificial diet, second instar larvae, five to seven days, 25° C., read-out: CL % Control (or Mortality) rating; for mortality at 0.05 µg/cm2: 0.05 μg/cm^2; for mortality at 0.05 µg/cm2 / mortality at 0.5 µg/cm2 / mortality at 5 µg/cm2: read-out: CL Percent control (or mortality); for mortality at 0.5 µg/cm2: 0.5 μg/cm^2; for mortality at 5 µg/cm2: 5 μg/cm^2
Protocol: Bioassays on CL were conducted using a 128-well diet tray assay. One to five second instar CL larvae were placed in each well (3 mL) of the diet tray that had been previously filled with 1 mL of artificial diet to which 50 μg/cm^2 of the test compound (dissolved in 50 μL of 90:10 acetone-water mixture) had been applied (to each of eight wells) and then allowed to dry. Trays were covered with a clear self-adhesive cover, and held at 25° C., 14:10 light-dark for five to seven days. Percent mortality was recorded for the larvae in each well; activity in the eight wells was then averaged. The results are indicated in the table entitled “Table ABC: Assay Results (F)”, “Table ABCD: Assay Results (C)”, and “Table ABCDE: Assay Results (P)” (See Table Section).
as §1

[1] = test system: Yellow Fever Mosquito (YFM); format: in vivo, Aedes aegypti; details: 15 μL of diluted 4000 ppm master solution per well, about 1 day-old larvae, 3 days
Protocol: Master plates containing 400 μg of a molecule dissolved in 100 μL of dimethyl sulfoxide (DMSO) (equivalent to a 4000 ppm solution) are used. A master plate of assembled molecules contains 15 μL per well. To this plate, 135 μL of a 90:10 water:acetone mixture is added to each well. A robot (Biomek® NXP Laboratory Automation Workstation) is programmed to dispense 15 μL aspirations from the master plate into an empty 96-well shallow plate (“daughter” plate). There are 6 reps (“daughter” plates) created per master. The created daughter plates are then immediately infested with YFM larvae. The day before plates are to be treated, mosquito eggs are placed in Millipore water containing liver powder to begin hatching (4 g. into 400 mL). After the daughter plates are created using the robot, they are infested with 220 μL of the liver powder/larval mosquito mixture (about 1 day-old larvae). After plates are infested with mosquito larvae, a non-evaporative lid is used to cover the plate to reduce drying. Plates are held at room temperature for 3 days prior to grading. After 3 days, each well is observed and scored based on mortality. The results are indicated in the table entitled “Table ABC: Assay Results (F)” and “Table ABCD: Assay Results (C)” (See Table Section). Pesticidally Acceptable Acid Addition Salts, Salt Derivatives, Solvates, Ester Derivatives, Polymorphs, Isotopes and Radionuclides

Row | SMILES | mortality at 50 µg/cm2 (Beet Armyworm (BAW)) | mortality at 50 µg/cm2 (Cabbage Looper (CL)) | YFM % Control (or Mortality) rating [1] | mortality at 0.05 µg/cm2 (Beet Armyworm (BAW)) | mortality at 0.5 µg/cm2 (Beet Armyworm (BAW)) | mortality at 5 µg/cm2 (Beet Armyworm (BAW)) | mortality at 0.05 µg/cm2 (Cabbage Looper (CL)) | mortality at 0.5 µg/cm2 (Cabbage Looper (CL)) | mortality at 5 µg/cm2 (Cabbage Looper (CL))
1 | C[C@@H](NC(=O)c1ccc(/C=C/C(c2cc(Cl)c(Cl)c(Cl)c2)C(F)(F)F)cc1C(F)(F)F)NC(=O)C(C)(C)C(F)(F)F (stereo partly drawn) [Compound P33, N—((S)-1-(3,3,3-Trifluoro-2,2-dimethylpropanamido)ethyl)-4-((E)-4,4,4-trifluoro-3-(3,4,5-trichlorophenyl)but-1-en-1-yl)-2-(trifluoromethyl)benzamide] | 50 to 100% | 50 to 100% | A (80-100) |  |  |  |  |  | 
2 | CC[C@H](NC(=O)CCC(F)(F)F)NC(=O)c1ccc(/C=C/C(c2cc(Cl)c(Cl)c(Cl)c2)C(F)(F)F)cc1C(F)(F)F (stereo partly drawn) [Compound F12, 4-((E)-4,4,4-Trifluoro-3-(3,4,5-trichlorophenyl)but-1-en-1-yl)-N—((R)-1-(4,4,4-trifluorobutanamido)propyl)-2-(trifluoromethyl)benzamide] | 50 to 100% | 50 to 100% | A (80-100) |  |  |  |  |  | 
3 | C[C@H](NC(=O)CCC(F)(F)F)NC(=O)c1ccc(/C=C/C(c2cc(Br)cc(Br)c2)C(F)(F)F)cc1C(F)(F)F (stereo partly drawn) [Compound P11, 4-((E)-3-(3,5-Dibromophenyl)-4,4,4-trifluorobut-1-en-1-yl)-N—((R)-1-(4,4,4-trifluorobutanamido)ethyl)-2-(trifluoromethyl)benzamide] | 50 to 100% | 50 to 100% | A (80-100) |  |  |  |  |  | 
4 | Cc1cc(/C=C/C(c2cc(Br)c(Cl)c(Br)c2)C(F)(F)F)ccc1C(=O)N[C@H](C)NC(=O)CCC(F)(F)F (stereo partly drawn) [Compound P14, 4-((E)-3-(3,5-Dibromo-4-chlorophenyl)-4,4,4-trifluorobut-1-en-1-yl)-2-methyl-N—((R)-1-(4,4,4-trifluorobutanamido)ethyl)benzamide] | 50 to 100% | 50 to 100% | A (80-100) |  |  |  |  |  | 
5 | CC(CC(=O)N[C@@H](C)NC(=O)c1ccc(/C=C/C(c2cc(Cl)c(Cl)c(Cl)c2)C(F)(F)F)cc1C(F)(F)F)C(F)(F)F (stereo partly drawn) [Compound F16, 4-((E)-4,4,4-Trifluoro-3-(3,4,5-trichlorophenyl)but-1-en-1-yl)-N-((1R)-1-(4,4,4-trifluoro-3-methylbutanamido)ethyl)-2-(trifluoromethyl)benzamide] | 50 to 100% | 50 to 100% | A (80-100) |  |  |  |  |  | 
6 | CN(NC(=O)c1ccc(/C=C/C(c2cc(Cl)c(Cl)c(Cl)c2)C(F)(F)F)cc1C(F)(F)F)C(=O)CCC(F)(F)F (centres unmarked) [Compound F23, (E)-N′-Methyl-4-(4,4,4-trifluoro-3-(3,4,5-trichlorophenyl)but-1-en-1-yl)-N′-(4,4,4-trifluorobutanoyl)-2-(trifluoromethyl)benzohydrazide] | 50 to 100% | 50 to 100% | A (80-100) |  |  |  |  |  | 
7 | C[C@H](NC(=O)CC(F)(F)F)NC(=O)c1ccc(/C=C/C(c2cc(Br)c(Cl)c(Br)c2)C(F)(F)F)cc1C(F)(F)F (stereo partly drawn) [Compound P2, 4-((E)-3-(3,5-Dibromo-4-chlorophenyl)-4,4,4-trifluorobut-1-en-1-yl)-2-(trifluoromethyl)-N—((R)-1-(3,3,3-trifluoropropanamido)ethyl)benzamide] | 50 to 100% | 50 to 100% | A (80-100) |  |  |  |  |  | 
8 | Cc1cc(/C=C/C(c2cc(Cl)c(Cl)c(Cl)c2)C(F)(F)F)ccc1C(=O)N[C@H](C)NC(=O)CCC(F)(F)F (stereo partly drawn) [Compound P25, 2-Methyl-4-((E)-4,4,4-trifluoro-3-(3,4,5-trichlorophenyl)but-1-en-1-yl)-N—((R)-1-(4,4,4-trifluorobutanamido)ethyl)benzamide] | 50 to 100% | 50 to 100% |  | 100% | 100% | 100% | 100% | 100% | 100%
9 | CC(CC(F)(F)F)C(=O)N[C@@H](C)NC(=O)c1ccc(/C=C/C(c2cc(Cl)c(Cl)c(Cl)c2)C(F)(F)F)cc1C(F)(F)F (stereo partly drawn) [Compound P30, N—((R)-1-(4,4,4-Trifluoro-2-methylbutanamido)ethyl)-4-((E)-4,4,4-trifluoro-3-(3,4,5-trichlorophenyl)but-1-en-1-yl)-2-(trifluoromethyl)benzamide] | 50 to 100% | 50 to 100% |  |  |  |  |  |  | 
10 | CNCCNC(=O)c1ccc(/C=C/C(c2cc(Cl)c(Cl)c(Cl)c2)C(F)(F)F)cc1C(F)(F)F (centres unmarked) [Compound C115, (E)-N-(2-(methylamino)ethyl)-4-(4,4,4-trifluoro-3-(3,4,5-trichlorophenyl)but-1-en-1-yl)-2-(trifluoromethyl)benzamide] | 50 to 100% | 0% |  |  |  |  |  |  | 
11 | C[C@H](NC(=O)CC(F)(F)F)NC(=O)c1ccc(/C=C/C(c2cc(Cl)c(Cl)c(Cl)c2)C(F)(F)F)cc1 (stereo partly drawn) [FC2, 4-((E)-4,4,4-Trifluoro-3-(3,4,5-trichlorophenyl)but-1-en-1-yl)-N—((R)-1-(3,3,3-trifluoropropanamido)ethyl)benzamide] |  |  |  | 0% | 0% | 0% | 0% | 0% | 0%
12 | C[C@H](NC(=O)CC(F)(F)F)NC(=O)c1ccc(/C=C/C(c2cc(Cl)c(F)c(Cl)c2)C(F)(F)F)cc1C(F)(F)F (stereo partly drawn) [Compound P1, 4-((E)-3-(3,5-Dichloro-4-fluorophenyl)-4,4,4-trifluorobut-1-en-1-yl)-2-(trifluoromethyl)-N—((R)-1-(3,3,3-trifluoropropanamido)ethyl)benzamide] | 50 to 100% | 50 to 100% |  |  |  |  |  |  | 
13 | C[C@H](NC(=O)CCC(F)(F)F)NC(=O)c1ccc(/C=C/C(c2cc(Cl)c(Cl)c(Cl)c2)C(F)(F)F)cc1C(F)(F)F (stereo partly drawn) [Compound F1, 4-((E)-4,4,4-Trifluoro-3-(3,4,5-trichlorophenyl)but-1-en-1-yl)-N—((R)-1-(4,4,4-trifluorobutanamido)ethyl)-2-(trifluoromethyl)benzamide] | 50 to 100% | 50 to 100% |  | 100% | 100% | 100% | 97% | 100% | 100%
14 | Cc1cc(/C=C/C(c2cc(Cl)c(Br)c(Cl)c2)C(F)(F)F)ccc1C(=O)N[C@H](C)NC(=O)CCC(F)(F)F (stereo partly drawn) [Compound P16, 4-((E)-3-(4-Bromo-3,5-dichlorophenyl)-4,4,4-trifluorobut-1-en-1-yl)-2-methyl-N—((R)-1-(4,4,4-trifluorobutanamido)ethyl)benzamide] | 50 to 100% | 50 to 100% |  |  |  |  |  |  | 
15 | Cc1cc(/C=C/C(c2cc(Cl)c(Cl)c(Cl)c2)C(F)(F)F)ccc1C(=O)N[C@H](C)NC(=O)CC(F)(F)F (stereo partly drawn) [Compound P22, 2-Methyl-4-((E)-4,4,4-trifluoro-3-(3,4,5-trichlorophenyl)but-1-en-1-yl)-N—((R)-1-(3,3,3-trifluoropropanamido)ethyl)benzamide] | 50 to 100% | 50 to 100% |  | 25% | 100% | 100% | 63% | 100% | 100%
